Test results as given in patent publication US20090181080A1, “Oral cannabinnoid liquid formulations and methods of treatment” (Insys Therapeutics Inc., priority 2007, published 2009).

Assay: Threshold concentration versus duration of effect analysis of Example 35 data
Type: in vivo, human
Experimental: In Example 38, the individual concentration-time profiles for soft gelatin capsules of Example 35 were analyzed to identify the mean duration of effect in that subject population, for a range of threshold concentrations (e.g., minimum effective concentrations). The results are depicted in FIG. 4.

[1] = 5 mg dose, by dose-proportional scaling
[2] = dose of 10 mg dronabinol, soft gelatin capsules of Example 35 data

With `CCCCCc1cc(O)c2c(c1)OC(C)(C)[C@@H]1CCC(C)=C[C@@H]21` [dronabinol, Delta-9-Tetrahydrocannabinol] the “threshold concentration for a 4 hour duration of effect” value [1] was “approximately 0.28 ng/mL”, the “threshold concentration for a 6 hour duration of effect” value [1] was roughly 0.12 ng/mL and the “threshold concentration required for a 4 hour duration of effect” value [2] was “approximately 0.56 ng/mL”. The “threshold concentration required for a 6 hour duration of action” value [2] was “approximately 0.24 ng/mL”.
